Literature values in publication PMC6095934, “Impact of rifampicin-inhibitable transport on the liver distribution and tissue kinetics of erlotinib assessed with PET imaging in rats” (EJNMMI Research, 2018).

How the values were obtained:
[1] = test system: organic anion transporter 2 (OAT2, SLC22A7); conditions: in vitro
MRP2 (ABCC2) [2] = test system: MRP2 (ABCC2); set-up: method as in PMID 23440558; conditions: canalicular side of hepatocytes
OAT3 [3] = test system: OAT3
OATP4C1 = test system: OATP4C1; set-up: method as in PMID 28550055
human OATP2B1 [4] = test system: human OATP2B1
OCT2 [5] = test system: OCT2; set-up: method as in PMID 21088257, PMID 26976869
[6] = test system: organic cation transporter 1 (OCT1, SLC22A1)
OAT1 [7] = test system: OAT1
[8] = NSCLC patients, 150 mg erlotinib once daily
OCT2 [9] = test system: OCT2; set-up: method as in PMID 21088257, PMID 26976869; remark: listed apart in the source
OAT2 = test system: OAT2; set-up: method as in PMID 21088257
human OATP2B1 [10] = conditions: in vitro, transfected cells
MRP2 (ABCC2) [11] = test system: MRP2 (ABCC2); set-up: method as in PMID 18723475
OAT3 [12] = test system: OAT3; set-up: method as in PMID 21088257
OAT1 [13] = test system: OAT1; set-up: method as in PMID 21088257

## CO[C@H]1/C=C/O[C@@]2(C)Oc3c(C)c(O)c4c(O)c(c(/C=N/N5CCN(C)CC5)c(O)c4c3C2=O)NC(=O)/C(C)=C\C=C\[C@H](C)[C@H](O)[C@@H](C)[C@@H](O)[C@@H](C)[C@H](OC(C)=O)[C@@H]1C [rifampicin, Rifampicin]
[1]
  inhibition of OAT2: inhibited neither
MRP2 (ABCC2) [2]
  inhibition of MRP2: potent inhibitor
OAT3 [3]
  inhibition of OAT3: not
OATP4C1
  inhibition of OATP4C1: not an inhibitor
Human OATP2B1 [4]
  IC50: 91 ± 14.6 µM
OCT2 [5]
  inhibition of OCT2: not inhibited
rOATP1A1
  Ki: 18 µM
[6]
  Ki: > 100 µM
Human OATP1B3
  IC50: 6.4 ± 0.5 µM
rOATP1B2
  Ki: 0.79 µM
OAT1 [7]
  inhibition of OAT1: inhibitor
Human OATP1B1
  IC50: 1.9 ± 0.16 µM

## C#Cc1cccc(Nc2ncnc3cc(OCCOC)c(OCCOC)cc23)c1 [erlotinib, Erlotinib]
[8]
  interpatient variability in area under the curve (AUC): 51%
  interpatient variability in trough plasma concentrations: 64%
OCT2 [9]
  substrate of OCT2: substrate
OAT2
  transport by OAT2: neither transported
Human OATP2B1 [10]
  transport by human OATP2B1: specifically transported
MRP2 (ABCC2) [11]
  substrate of MRP2: not a substrate
OAT3 [12]
  substrate of OAT3: substrate
OAT1 [13]
  transport by OAT1: neither transported
